Results: patent US20100248365A1, “GANGLIOSIDE BIOSYNTHESIS MODULATORS” (ZACHARON PHARMACEUTICALS, INC., priority 2009, published 2010)

Assays:
Assay type in all cases: cell-based
[1] = test system: NCI-H82 cells; assay: Ganglioside profiling of compound-treated NCI-H82 cells (GSL extraction, 2AA labeling, NP-HPLC); settings: for cellular inhibition of specific ganglioside biosynthesis: NCI-H82 cells, 25, 12 and 6 uM, 96 hours, HPLC peaks; for preferential reduction effect on gangliosides GM3 and GD3: relative to other ganglioside species
Procedure: NCI-H82 cells were cultured in 6 well plates and treated with compounds at a concentration of 25, 12 and 6 uM in triplicates. PDMP (1-Phenyl-2-decanoylamino-3-morpholino-1-propanol, HCl, EMD #513100) at 25, 12, 6 uM and DGNJ (N-(n-Butyl) deoxygalactonojirimycin, EMD #203994) at 50 uM were used as controls. After 96 hours of compounds treatment the cells were harvested for ganglioside profiling. The suspension cells were centrifuged and the pellets washed once with PBS. Cells were resuspended in 1 ml of PBS, 1/100 of cells were taken to check the cell viability (Viacount)) and for glycosphingolipid (GSL) quantitation and normalization. 1/10 of cells were taken for CTB-FACS to check GM1 expression. The remaining cells were subjected to the ganglioside extraction procedure follow the protocol described by R. Schnaar (Methods in Enzymology, 230: 348-370, 1994).
Briefly, the cells were pelleted by centrifugation and resuspended in cold distilled-water. The cell suspension was homogenized with Polytron homogenizer. Glycolipids were extracted with chloroform:methanol:water at 4:8:3 ratio. Glycolipids were partitioned by adding 0.173 volume of water to extracted the supernatant. The upper […] phase (glycolipids) was dried in a vacuum centrifuge (SpeedVac).
Glycans were released from the glycolipids using the enzyme EGCase II (Sigma, Cat #E9030) as described by the manufacture. Released glycans were labeled with 2AA (2-Anthranilic acid, Sigma, Cat #A89804) following the procedures described by D. Neville (Analytical Biochemistry, 331 (2004) 275-282). Non-incorporated 2AA was removed by column chromatography (Discovery DPA-6S). Briefly, the extracted GSLs were digested with EGCase in a 10 ul reaction volume overnight. 40 ul of labeling mix (30 mg/ml 2-AA, 45 mg/ml […] in 4% NaAc and 2% boric acid in methano) were added. The reaction was carried at 80° C. for 45 min. 2AA-labeled glycans were purified by column chromatography (Discovery DPA-6S). The column was preequilibrated with 2×1 ml 97% acetonitrile (ACN) and the sample was loaded by adding 1 ml 97% ACN to the reaction mix. The column was washed 4× with 1 ml 97% ACN and the 2AA-labeled […] were eluted with 2×0.6 ml water. After drying down (SpeedVac), the sample were resuspended and analyzed by normal phase high performance liquid chromatography (NP-HPLC).
Purified 2AA-GSL glycans were separated on NP-HPLC using a 4.6×250 mm TSK Gel-Amide-80 column (Tosoh Bioscience). The chromatography system consisted of a Waters Alliance 2690/5 separation module and an in-line Waters 2475 fluorescence detector set at Exλ360 nm and Emλ425 nm. All chromatography was performed at 30° C. Solvent A was 20% 100 mM ammonium acetate pH3.85, 80% Acetonitrile, solvent B was 20% 100 mM ammonium acetate pH3.85, 20% ACN and 60% Milli-Q water. The gradient was run from 86% A to 54.7% A in 55 min at flow rate 0.8˜1.2 ml/min (Analytical Biochemistry, 331 (2004) 275-282). Chromatography data was processed using Waters Empower software. Glucose units were determined based on a 2AA-labeled glucose oligomer ladder (Ludger). All 2AA-GSL standards were prepared in house and labeled as glucose units.
FIGS. 18-25 illustrate the dose dependent effects on individual gangliosides (individual HPLC peaks) of various compounds as determined according to the methods of Example 5, but with additional and slightly altered concentration levels used for test compound dosing.

[2] = test system: primary human fibroblasts from Sandhoff patients; assay: GM2 storage in gangliosidosis fibroblasts (Sandhoff), GSL analysis by HPLC; settings: 30 uM, 13 days of treatment
Procedure: (§1) Human gangliosidosis fibroblast cells are obtained e.g., from Coriell Institute for Medical Research (http://ccr.coriell.org). The primary cells are cultured in minimum essential medium (MEM) with 15% fetal bovine serum (FBS) as instructed by the supplier.
(§2) The fibroblast cells are cultured in 6 well plates at a density of 5.0E05/well in MEM, 15% FBS. The cells are treated with compounds at 30 uM on the next day of culture. The non-selective glycolipid inhibitors PDMP and DGNJ, which inhibit glucosylceramide synthase, are used as control. All the treatments are performed in triplicate. The medium is changed every 5 days with fresh compounds added. After 13 days of treatment with compounds, the cells are harvested for GSL analysis. The conditioned medium is removed, the monolayer is washed with PBS and detached with 5 mM EDTA in PBS. An aliquot of the cell suspension is taken for cell viability count using Viacount.
The cells are spun down and the cell pellets are resuspended in water for GSL extraction. The cells are homogenized using a homogenizer at 6500 rpm for 30 seconds twice. Gangliosides are extracted from homogenates by using chloroform:methanol:water (4:8:3) followed by partitioning. The ganglioside containing upper phase is taken and dried down in a SpeedVac.
Purified total GSLs are subjected to endo-glucoceramidase (EGCase II, Sigma) treatment to release free glycans. ˜10 ug protein equivalent GSL is digested with 1 mU EGCaseII in 15 ul incubation buffer containing 50 mM sodium acetate, pH 5.5 and 0.4% TX100. Digestion is performed at 37° C. overnight. Released free glycans are tagged with anthranilic Acid (2-AA, Sigma). A labeling mix is prepared freshly in 4% sodium acetate (NaAc.3H2O) and 2% boric acid/methanol(w/v) by adding 45 mg NaBH3CN first and then adding 30 mg 2AA in a 1 ml solution. 40 ul of this labeling mix is added directly into digestion mix. The labeling is carried out at 80° C. for 45˜60 min. Free labeling reagents are removed by passing the reaction mix through a Discovery DPA-6S (Sigma) column. The DPA-6S column (50 mg) is pre-equilibrated twice with 1 ml acetonitrile (ACN). The reaction mixture is cooled down, 1 ml of 97% ACN is added, and the sample is loaded onto the column. The column is washed with four times with 1 ml of 99% ACN and once with 0.5 ml of 97% ACN. 2AA-glycans are eluted in two time 600 ul water. The eluates are dried down in a SpeedVac and subjected to HPLC analysis.
(§3) Purified 2-AA-labeled oligosaccharides are analyzed by HPLC an method as described by Neville et al. (Anal. Biochem, 2004, 331:275-282). 2-AA-oligosaccharides are separated by NP-HPLC using a 5 μm 4.6×250 mm TSK gel-Amide 80 column (Tosoh) on a Waters Alliance 2690 separation module equipped with a Waters 2475 fluorescence detector set at Exλ360 nm and Emλ425 nm. Solvent A is 80% ACN and 20% 100 mM ammonium acetate (AmAc), pH 3.85. Solvent B is 60% Milli-Q water, 20% ACN and 20% 100 mM AmAc, pH 3.85. The gradient profile is listed below. Glucose unites are determined based on a 2-AA-labeled glucose ladder (Ludger, UK).

[3] = test system: primary human fibroblasts from Tay-Sachs patients; assay: GM2 storage in gangliosidosis fibroblasts (Tay-Sachs), GSL analysis by HPLC; settings: 30 uM, 13 days of treatment
Procedure: as §1
as §2, with “Viacount. […]” for “Viacount.”
as §3, with “Solvent A is 80% ACN and 20% 100 mM ammonium acetate (AmAc), pH 3.85. Solvent B is 60% Milli-Q water, 20% ACN and 20% 100 mM AmAc, pH 3.85. The gradient profile is listed below.” left out

[4] = NCI-H82 cells, HPLC peak area as % of untreated
[5] = NCI-H82 cells, HPLC peak areas as % of untreated

## COc1ccc(/C(C)=N/Nc2nc3ccccc3nc2C)cc1OC [compound 19, (E)-2-(2-(1-(3,4-dimethoxyphenyl)ethylidene)hydrazinyl)-3-methylquinoxaline]
[1]; [4]
  dose dependent reduction effect on ganglioside GM1: dose dependent reduction
[2]
  reduction of GM2 storage in primary human fibroblasts from Sandhoff patients: reduction

## CN(C)c1ccc(-c2nc3c(C(C)(C)C)cc(C(C)(C)C)c(O)c3o2)cc1 [compound 2, 4,6-di-tert-butyl-2-(4-(dimethylamino)phenyl)benzo[d]oxazol-7-ol]
[1]
  cellular inhibition of specific ganglioside biosynthesis: inhibition
[1]; [4]
  dose dependent reduction effect on ganglioside GD1b: dose dependent reduction

## N#Cc1c(-n2ncnc2-c2ccc(F)cc2)sc2c1CCCCC2 [compound 4, 2-(5-(4-fluorophenyl)-1H-1,2,4-triazol-1-yl)-5,6,7,8-tetrahydro-4H-cyclohepta[b]thiophene-3-carbonitrile]
[1]; [4]
  dose dependent reduction effect on ganglioside GD3: dose dependent reduction
[1]; [5]
  reduction in B series gangliosides relative to A series gangliosides: reduction

## CC(C)(C)c1cc(C(C)(C)C)c2nc(-c3cc(Br)ccc3O)oc2c1O [compound 5, 2-(5-bromo-2-hydroxyphenyl)-4,6-di-tert-butylbenzo[d]oxazol-7-ol]
[1]; [4]
  dose dependent reduction effect on ganglioside GD2: dose dependent reduction
[1]; [5]
  preferential reduction effect on 2 series gangliosides GM2 and GD2 relative to the 3 series gangliosides GM3 and GD3: preferential reduction
[2]
  reduction of GM2 storage in primary human fibroblasts from Sandhoff patients: reduction

## COc1cccc(-c2nc3c(C(C)(C)C)cc(C(C)(C)C)c(O)c3o2)c1OC [compound 20, 4,6-di-tert-butyl-2-(2,3-dimethoxyphenyl)benzo[d]oxazol-7-ol]
[2]
  reduction of GM2 storage in primary human fibroblasts from Sandhoff patients: reduction

## Cc1ccc(C=NN2CCN(c3ccc(Cl)cc3)CC2)o1 [compound 17, 4-(4-chlorophenyl)-N-((5-methylfuran-2-yl)methylene)piperazin-1-amine]
[1]
  cellular inhibition of specific ganglioside biosynthesis: inhibition
[1]; [4]
  dose dependent reduction effect on ganglioside GM3: dose dependent reduction
[2]
  reduction of GM2 storage in primary human fibroblasts from Sandhoff patients: reduction

## CC(C)CNc1oc(-c2cccs2)nc1C#N [compound 8, 5-(isobutylamino)-2-(thiophen-2-yl)oxazole-4-carbonitrile]
[1]; NCI-H82 cells
  preferential reduction effect on gangliosides GM3 and GD3: preferential reduction
[2]
  reduction of GM2 storage in primary human fibroblasts from Sandhoff patients: reduction

## CC(C)(C)C1=CC(=Nc2ccc(Br)cc2)C=C(C(C)(C)C)C1=O [compound 18, 4-(4-bromophenylimino)-2,6-di-tert-butylcyclohexa-2,5-dienone]
[1]; [4]
  dose dependent reduction effect on ganglioside GM2: dose dependent reduction

## CC1=C(C(=O)Nc2ccccc2)C(c2ccccc2)C(C#N)=C(SCC(=O)NCc2ccccc2)N1 (stereo not drawn) [compound 7, 6-(2-(benzylamino)-2-oxoethylthio)-5-cyano-2-methyl-N,4-diphenyl-1,4-dihydropyridine-3-carboxamide]
[2]
  reduction of GM2 storage in primary human fibroblasts from Sandhoff patients: reduction

## COc1cc(/C=C/c2ccc3cccc(OCc4ccccc4)c3n2)cc([N+](=O)[O-])c1OC(C)=O [compound 15, (E)-4-(2-(8-(benzyloxy)quinolin-2-yl)vinyl)-2-methoxy-6-nitrophenyl acetate]
[1]
  cellular inhibition of specific ganglioside biosynthesis: inhibition

## CSc1ccc(-c2ncnn2-c2sc3c(c2C#N)CCCCC3)cc1 [compound 3, 2-(5-(4-(methylthio)phenyl)-1H-1,2,4-triazol-1-yl)-5,6,7,8-tetrahydro-4H-cyclohepta[b]thiophene-3-carbonitrile]
[1]; NCI-H82 cells
  preferential reduction effect on gangliosides GM3 and GD3: preferential reduction
[2]
  reduction of GM2 storage in primary human fibroblasts from Sandhoff patients: reduction

## CCCCN1C[C@H](O)[C@@H](O)[C@@H](O)[C@H]1CO [DGNJ, N-(n-Butyl) deoxygalactonojirimycin, reference compound]
[2]
  reduction of GM2 storage in primary human fibroblasts from Sandhoff patients: reduction

## CCCCCCCCCC(=O)NC(CN1CCOCC1)C(O)c1ccccc1 (stereo not drawn) [PDMP, 1-Phenyl-2-decanoylamino-3-morpholino-1-propanol, reference compound]
[1]
  cellular inhibition of specific ganglioside biosynthesis: inhibition
[2]
  reduction of GM2 storage in primary human fibroblasts from Sandhoff patients: reduction

## Cc1cc(OCC(=O)Nc2ccc(N(C)C)cc2)cc(C)c1Cl [compound 21, 2-(4-chloro-3,5-dimethylphenoxy)-N-(4-(dimethylamino)phenyl)acetamide]
[3]
  reduction of GM2 storage in primary human fibroblasts from Tay-Sachs patients: reduction
